The text below walks through data of patent publication US20090274626A1, “TARGETING TNF-alpha CONVERTING ENZYME(TACE)- DEPENDENT GROWTH FACTOR SHEDDING IN CANCER THERAPY” (The Regents of the University of California, priority 2005, published 2009).

In data set [1] the test system is LPS-stimulated human peripheral blood mononuclear cells (PBMC). The conditions noted are these: cited from earlier work.
In data set [2] the target is TACE (Homo sapiens, UniProt P78536). The settings on record: cited from earlier work.
Data set [3] concerns T4-2 cells. The data set is described as follows: ELISA of EGFR ligands in conditioned medium of T4-2 3D lrECM cultures. The data set is classed as cell-based, human. The conditions noted are these: TAPI-2 treatment as printed in legend. Here is the method: (§1) Silencer™ siRNAs against TACE (Ambion, Austin, Tex.) were also transfected in according to the Reverse Transfection protocol of Invitrogen. siRNAs against the following TACE sense strand sequences were transfected either individually (100 nM) or as a pool (33.3 nM each): […]tt (SEQ ID NO: 2), GCAGCAt[…]tt (SEQ ID NO:3) and […]tt (SEQ ID NO: 4). For 3D culture assays, T4-2 cells were trypsinized post-transfection and plated as single cells in Matrigel. Knockdown was assessed by western blot from a parallel transfection 48 hrs post-transfection. Random siRNA sequence was used as a negative control.
(§2) ELISA. Equal numbers of cells were washed three times and allowed to condition medium for 90 minutes. The amount of AREG and TGFα accumulating in the medium was determined by using specific ELISA assays (R & D Systems, Minneapolis, Minn.) according to the manufacturer's instructions.

The subject of data set [4] is T4-2 cells. Briefly: ELISA of AREG and TGFα shed into conditioned medium of T4-2 cells. The data set is classed as cell-based, human. The conditions noted are these: TAPI-2-treated T4-2 cells. As to the method:
as §1, §2

The subject of data set [5] is T4-2 cells expressing TGFαΔTM. Briefly: 3D culture of T4-2 cells expressing soluble TGFα (TGFαΔTM): colony size and morphology. Format: cell-based, human. The settings on record: T4-2 cells producing soluble TGFα. Here is the method: (§3) For 3D lrECM culture, T4-2 cells were seeded at 21000 cells per cm^2 on top of Matrigel, overlaid with H14 medium containing 5% Matrigel (BD Biosciences, San Jose, Calif.), and treated with 80 nM AG1478, 20 μM TAPI-2 or the relevant vehicle controls.
(§4) Amphotropic retroviruses were generated by transfection (Lipofectamine; Invitrogen, Carlsbad, Calif.) of the Phoenix packaging cell line (a gift of Dr. Gary Nolan, Stanford) with pBM-IRES-Puro or derivatives containing the AREG or TGFα open reading frames. Two million phoenix cells per 6 cm dish were plated the day prior to transfection and transfected with 2 μg of the appropriate retroviral construct. Retrovirus-containing culture medium was harvested after 48 hrs, supplemented with polybrene to 5 μg/ml and added to HMT3522 cells at 30-50% confluence. Pools of stable infectants were selected in 1 μg/ml puromycin.
(§5) Cloning of pro-AREG and pro-TGFα. The open reading frames of these genes were amplified by PCR from T4-2 cDNA. […]
(§6) Quantitation of colony size in the 3D lrECM culture was performed by image analysis. […] The high resolution digital images were then analyzed using NIH Image analysis software and the cross-sectional area of each colony was determined for many colonies. This process was hand-curated to ensure that aggregates of colonies were not measured as a single colony.

Data set [6] has as its system MCF-7. Briefly: ELISA of AREG shedding from MCF-7 cells. The data set is classed as cell-based, human. The conditions noted are these: MCF-7, 20 μM TAPI-2, 90 minutes. As to the method:
(§7) FIG. 8. Suppression of growth factor shedding by TAPI-2 in a panel of breast cancer cell lines. A: Three AREG-expressing breast cancer cell lines were identified. Equal number of cells were treated with 20 μM TAPI-2 or vehicle for 90 minutes and AREG shedding was quantified by ELISA. B: Two breast cancer cell lines expressing TGFα were identified and treated as described in (A). TAPI-2 suppresses TGFα shedding.
as §2

In data set [7] the test system is T4-2 cells. Briefly: Relative proliferation of T4-2 cells with AG 1478 with or without TAPI-2 (sensitization, FIG. 5). The data set is classed as cell-based, human. The conditions noted are these: 10 μM TAPI-2; shift of AG 1478 proliferation curve. As to the method: FIG. 5. […] T4-2 cells were allowed to adhere to 48 well plates. Drugs were added at the indicated concentrations. Conditions were analyzed in triplicate. For comparison, all data were normalized to the 100%.
(FIG. 5) In this experiment, T4-2 cells were allowed to adhere to 48 well plates. Drugs, AG 1478 and TAPI-2, were added at various concentrations of 0.001 μM, 0.01 μM, 0.1 μM, 1 μM, 10 μM and 100 μM. Conditions were analyzed in triplicate. For comparison, all data were normalized to the 100%.

Data set [8] relates to HCC1500. The data set is described as follows: ELISA of AREG and TGFα shedding from HCC1500 cells. The data set is classed as cell-based, human. The conditions noted are these: HCC1500, 20 μM TAPI-2, 90 minutes. Here is the method:
as §7, §2

For data set [9], the system named is signaling kinases downstream of the EGFR. The data set is described as follows: Western blot of basal activity of signaling kinases downstream of the EGFR in T4-2 cells. The data set is classed as cell-based, human. The conditions noted are these: addition of TAPI-2. Here is the method:
Western blotting. Cells were lysed in 50 mM Tris.HCl pH 7.5, 150 mM NaCl, 0.5% NP40 supplemented with protease and phosphatase inhibitors (Calbiochem, San Diego, Calif.) and clarified by centrifugation. 50 μg of each sample was fractionated by SDS-PAGE, transferred to nitrocellulose membranes and probed with antibodies against the following proteins: phospho-MAPK, Total MAPK, phospho-p70S6-Kinase, (Cell Signaling Technology, MA). E-cadherin (BD Biosciences, CA) was used as a loading control. Blots were developed using Supersignal West Femto (Pierce, Rockland, Ill.). Images were captured using a Fluor Chem 8900 imager (Alpha Innotech, San Leandro, Calif.).

For data set [10], the system named is T4-2 cells. Briefly: Proliferation assay (WST) of T4-2 cells in 2D culture. The data set is classed as cell-based, human. Here is the method: Proliferation assays. HMT3522 cells were seeded in 96 well plates and treated (in triplicate) as described in the figure legends. To determine relative growth, 0.1 volumes of WST cell proliferation analysis reagent (Roche, Indianapolis, Ind.) was added to the medium and its formazan metabolite was measured by absorbance at 460 nm.

The subject of data set [11] is T4-2 cells expressing AREGΔTM. Briefly: 3D culture of T4-2 cells expressing soluble AREG (AREGΔTM): colony size and morphology. The data set is classed as cell-based, human. The settings on record: T4-2 cells producing soluble AREG. Here is the method: as §3, §4, §5, §6
Data set [12] has as its system MDA-MB-468. The data set is described as follows: ELISA of TGFα shedding from MDA-MB-468 cells. The data set is classed as cell-based, human. The conditions noted are these: MDA-MB-468, 20 μM TAPI-2, 90 minutes. Here is the method:
as §7, §2

Data set [13] relates to T4-2 cells. Briefly: Cytotoxicity of TAPI-2 at the concentration used. Format: cell-based, human. The settings on record: data not shown.
Data set [14] relates to S1 cells. Briefly: Acinar morphogenesis of S1 cells in the presence of soluble EGF. The data set is classed as cell-based, human. The conditions noted are these: data not shown. As to the method:
Cell culture All reagents were purchased from SIGMA (St. Louis, Mo.) except where otherwise noted. HMT3522 cells were cultivated on 2D and 3D substrata in H14 medium, a 50:50 mix of DMEM/F12 (UCSF Cell culture Facility, San Francisco, Calif.) supplemented with 5 μg/ml prolactin, 250 ng/ml insulin, 1.4×10^−6 M hydrocortisone, 10^−10 M β-estradiol, 2.6 ng/ml sodium selenite and 10 μg/ml transferrin. S1 cells were additionally supplemented with 10 ng/ml EGF. In various experiments, cells were supplemented with AREG, TACE, TGFα. In all cases, AREG and TGFα were used at the same molar concentration as EGF ([…]).

Data set [15] concerns ZR75B. Briefly: ELISA of AREG shedding from ZR75B cells. Format: cell-based, human. The conditions noted are these: 20 μM TAPI-2, 90 minutes. Here is the method: as §7, §2
Data set [16] deals with T4-2 cells. Briefly: 3D lrECM (Matrigel) culture of T4-2 cells: reversion of malignant phenotype, polarity, colony size. Format: cell-based, human. Here is the method:
as §3, §1
Indirect immunofluorescence. Colonies were solubilized from […] culture by shaking in PBS/0.05M EDTA on ice for 30 mins, fixed in 4% paraformaldehyde, permeabilized, stained with anti-α6-integrin (Chemicon, Temecula, Calif.) and counterstained with DAPI.
Quantitation of colony size in the 3D lrECM culture was performed by image analysis. Representative images were captured using a digital camera attached to a phase contrast microscope. The high resolution digital images were then analyzed using NIH Image analysis software and the cross-sectional area of each colony was determined for many colonies. This process was hand-curated to ensure that aggregates of colonies were not measured as a single colony.

“Also recorded” adds a separate entry of the source.

Chain of TACE (P78536 215-824): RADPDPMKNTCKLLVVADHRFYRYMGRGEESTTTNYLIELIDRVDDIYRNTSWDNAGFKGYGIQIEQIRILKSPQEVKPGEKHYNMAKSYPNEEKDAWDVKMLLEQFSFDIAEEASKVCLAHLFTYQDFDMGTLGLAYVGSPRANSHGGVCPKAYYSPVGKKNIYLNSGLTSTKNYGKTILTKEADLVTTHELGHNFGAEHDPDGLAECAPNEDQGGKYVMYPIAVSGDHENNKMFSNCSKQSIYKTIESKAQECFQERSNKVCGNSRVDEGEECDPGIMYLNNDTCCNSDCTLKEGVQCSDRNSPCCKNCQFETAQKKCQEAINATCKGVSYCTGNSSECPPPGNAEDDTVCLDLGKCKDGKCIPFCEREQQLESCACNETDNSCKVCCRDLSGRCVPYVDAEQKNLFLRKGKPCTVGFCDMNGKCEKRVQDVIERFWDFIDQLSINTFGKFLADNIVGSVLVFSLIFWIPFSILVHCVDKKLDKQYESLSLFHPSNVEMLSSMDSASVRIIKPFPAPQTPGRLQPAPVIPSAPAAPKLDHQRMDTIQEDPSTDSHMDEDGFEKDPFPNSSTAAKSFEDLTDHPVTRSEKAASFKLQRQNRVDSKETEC

On to “TRWLVYFSRPYLVAT (synthetic peptide shown to inhibit TACE activity)”, for which the TNF-alpha release entry in [1] was “inhibit the TNF-alpha release”. Besides, the “binding to TACE” value in data set [2] is listed as “bind to TACE”.

`CC(C)C[C@H](CC(=O)NO)C(=O)N[C@H](C(=O)N[C@@H](C)C(=O)NCCN)C(C)(C)C` [TAPI-2, N—(R)-[2-(Hydroxyaminocarbonyl)methyl]-4-methylpentanoyl-L-t-butyl-alanyl-L-alanine, 2-aminoethyl Amide]: the “levels of shed ligands in conditioned medium (FIG. 6C)” value in [3] is given as “reduced”. The “shedding of AREG (ELISA of CM)” value in [4] is “suppresses the shedding of both AREG and TGFα”. The “shedding of TGFα (ELISA of CM)” value in data set [4] is “suppresses the shedding of both AREG and TGFα”. The “response to TAPI-2 by criteria of colony size and morphology” value in [5] and in data set [11] was “completely resistant to TAPI-2” each time. Also, the AREG shedding result in data set [6], in data set [8] and in data set [15] was “significantly reduced ligand shedding” throughout. The “sensitization of T4-2 cells to small molecule EGFR inhibitor (AG1478)” value in data set [7] is “sensitizes T4-2 cells to the effect of the EGFR inhibitor, AG1478; also recorded: four-fold sensitization”. Also, the TGFα shedding entry in [8] and in [12] was “significantly reduced ligand shedding” throughout. Also, the “basal activities of signaling kinases downstream of the EGFR” value in data set [9] is reported as “significantly suppressed”. For the same compound, in [10] (2D culture, soluble/exogenous EGF added), the “TAPI-2-induced reduction of T4-2 proliferation on addition of EGF” value is given as “overcome by addition of exogenous EGF; also recorded: completely overcome by addition of soluble EGF”. Moreover, the “proliferation of T4-2 cells” value in [10] (2D cultures, vs 0 μM TAPI-2) is given as “dose-dependent decrease in proliferation; also recorded: dose-dependent reduction in T4-2 cell proliferation”. For the same compound, the cytotoxicity entry in data set [13] was “not cytotoxic at the concentration used”. The “interference with normal acinar morphogenesis of S1 cells” value in data set [14] is listed as “nor did it interfere with the ability of S1 cells to execute normal acinar morphogenesis”. In data set [16] (3D culture, TAPI-2 vs vehicle), the “restoration of epithelial polarity (basal localization of α6-integrin)” value was “restoration of epithelial polarity”. Besides, in [16] (3D culture, four days, p<0.001), the “colony size (cross-sectional area) vs vehicle” value is given as “significantly smaller than those formed by cells treated with vehicle alone; also recorded: significantly different from controls”. The “reversion of the malignant phenotype of T4-2 cells” value in data set [16] (3D lrECM culture, 80 nM AG1478 or 20 μM TAPI-2 vs vehicle) is recorded as “resulted in a reversion of the malignant phenotype”.
